Where “and” joins values, the source holds several entries; their conditions need not be identical. Equal entries are not always repeated. Where two headings read alike, the source gives them in different places.
Target: ACK1 (Homo sapiens, UniProt Q07912)
Assay: ACK1 ELISA: phosphorylation of AKT-derived peptide
Format: biochemical
[1] = 10 μM, Table 1, replicate values listed
[2] = 10 μM, Table 2, library 9, read-out: % Inhibition @ 10 μM (ELISA)
[3] = 10 μM, read-out: ACK1 inhibition at 10 μM (ELISA)
[4] = 10 μM, Table 1, replicate values listed, read-out: % Inhibition at 10 μM (ELISA)
[5] = 10 μM, Table 1, replicate values listed, hydrochloride

ACK1, sequence (Q07912 whole entry): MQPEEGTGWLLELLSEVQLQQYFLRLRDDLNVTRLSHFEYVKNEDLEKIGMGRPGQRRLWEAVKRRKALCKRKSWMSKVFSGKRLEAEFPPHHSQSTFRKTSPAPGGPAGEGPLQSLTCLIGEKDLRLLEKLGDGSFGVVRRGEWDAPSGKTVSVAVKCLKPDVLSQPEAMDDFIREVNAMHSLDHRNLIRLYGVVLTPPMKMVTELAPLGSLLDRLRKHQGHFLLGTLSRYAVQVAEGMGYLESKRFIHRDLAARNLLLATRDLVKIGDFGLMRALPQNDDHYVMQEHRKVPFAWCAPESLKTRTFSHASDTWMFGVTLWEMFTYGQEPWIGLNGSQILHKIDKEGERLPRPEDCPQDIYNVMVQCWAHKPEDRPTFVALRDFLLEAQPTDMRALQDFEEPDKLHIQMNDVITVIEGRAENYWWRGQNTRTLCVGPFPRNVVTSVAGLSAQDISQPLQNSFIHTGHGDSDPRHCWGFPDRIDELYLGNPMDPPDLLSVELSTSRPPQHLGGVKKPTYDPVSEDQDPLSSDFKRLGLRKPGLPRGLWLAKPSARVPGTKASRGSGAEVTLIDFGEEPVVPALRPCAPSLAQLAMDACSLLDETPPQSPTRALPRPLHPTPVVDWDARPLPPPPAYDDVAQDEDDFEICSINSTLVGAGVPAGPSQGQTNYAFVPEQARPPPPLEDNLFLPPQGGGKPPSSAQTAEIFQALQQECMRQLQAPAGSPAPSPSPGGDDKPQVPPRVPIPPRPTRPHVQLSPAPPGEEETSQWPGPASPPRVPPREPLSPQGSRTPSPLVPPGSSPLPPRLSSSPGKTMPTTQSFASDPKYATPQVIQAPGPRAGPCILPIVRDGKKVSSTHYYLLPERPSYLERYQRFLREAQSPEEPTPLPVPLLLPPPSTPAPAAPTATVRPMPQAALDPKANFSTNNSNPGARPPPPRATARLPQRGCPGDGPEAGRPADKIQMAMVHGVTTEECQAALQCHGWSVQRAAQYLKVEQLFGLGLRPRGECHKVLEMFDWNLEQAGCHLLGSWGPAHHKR

O=C(O)C1CCN(c2ccc(Nc3ncc(Br)c(NCC4CCCO4)n3)cc2)CC1 (centres unmarked)
% Inhibition at 10 μM (ELISA) [1]: 84%
inhibition at 10 µM (read-out: % Inhibition at 10 μM (ELISA), 10 μM, Table 1, replicate values listed): 85%

Brc1cnc(Nc2ccc(N3CCOCC3)cc2)nc1NCC1CCCO1 (centres unmarked) [Compound 9h]
inhibition at 10 µM [2]: 89 ± 1.4%

Clc1cnc(Nc2ccc(N3CCNCC3)cc2)nc1NCC1CCCO1 (centres unmarked) [Compound 14]
inhibition at 10 µM [2]: 66 ± 1.5%
inhibition at 10 µM [3]: 66%

Brc1cnc(Nc2ccc(N3CCNCC3)cc2)nc1NCC1CCCO1 (centres unmarked) [Compound 15]
inhibition at 10 µM [2]: 65%

CN1CCN(c2ccc(Nc3ncc(Br)c(NCC4CCCO4)n3)cc2)CC1 (centres unmarked) [Compound 18]
inhibition at 10 µM [2]: 67 ± 0.2%
inhibition at 10 µM [3]: 67%

CCOC(=O)C1CCN(c2ccc(Nc3ncc(Cl)c(NC[C@H]4CCCO4)n3)cc2)CC1.Cl [DZ1-070, (R)-ethyl1-(4-(5-chloro-4-((tetrahydrofuran-2-yl)methylamino)pyrimidin-2-ylamino)phenyl)piperidine-4-carboxylate]
% Inhibition at 10 μM (ELISA) [1]: 65%
inhibition at 10 µM [4]: 52%

CCOC(=O)C1CCN(c2ccc(Nc3ncc(Cl)c(NC[C@@H]4CCCO4)n3)cc2)CC1.Cl [DZ1-079, (S)-ethyl1-(4-(5-chloro-4-((tetrahydrofuran-2-yl)methylamino)pyrimidin-2-ylamino)phenyl)piperidine-4-carboxylate]
% Inhibition at 10 μM (ELISA) [1]: 69%
inhibition at 10 µM [4]: 54%

Brc1cnc(Nc2ccc(C3CCNCC3)cc2)nc1NCC1CCCO1.Cl (centres unmarked) [DZ1-088, 5-bromo-N2-(4-(piperidin-4-yl)phenyl)-N4-((tetrahydrofuran-2-yl)methyl)pyrimidine-2,4-diamine]
% Inhibition at 10 μM (ELISA) [1]: 85%
inhibition at 10 µM [4]: 84%

Cl.O=C(Nc1c(F)cccc1Cl)c1cnc(Nc2ccc(N3CCOCC3)cc2)nc1NCC1CCCO1 (centres unmarked) [DZ1-092, N-(2-chloro-6-fluorophenyl)-2-(4-morpholinophenylamino)-4-((tetrahydrofuran-2-yl)methylamino)pyrimidine-5-carboxamide]
% Inhibition at 10 μM (ELISA) [1]: 88%
inhibition at 10 µM [4]: 77%

CCOC(=O)C1CCN(c2ccc(Nc3ncc(Br)c(NCC4CCCO4)n3)cc2)CC1.Cl (centres unmarked) [DZ1-093, Ethyl 1-(4-(5-bromo-4-((tetrahydrofuran-2-yl)methylamino)pyrimidin-2-ylamino)phenyl)piperidine-4-carboxylate]
% Inhibition at 10 μM (ELISA) [1]: 65%
inhibition at 10 µM [4]: 64%

CCOC(=O)C1CCN(c2ccc(Nc3ncc(C(=O)Nc4c(F)cccc4Cl)c(NCC4CCCO4)n3)cc2)CC1.Cl (centres unmarked) [DZ1-094, Ethyl 1-(4-(5-(2-chloro-6-fluorophenylcarbamoyl)-4-((tetrahydrofuran-2-yl)methylamino)pyrimidin-2-ylamino)phenyl)piperidine-4-carboxylate]
% Inhibition at 10 μM (ELISA) [1]: 73%
inhibition at 10 µM [4]: 61%

CN1CCN(c2ccc(Nc3nccc(NCC4CCCO4)n3)cc2)CC1 (centres unmarked) [DZ1-104]
% Inhibition at 10 μM (ELISA) [1]: 13%
inhibition at 10 µM [4]: 19%

Oc1ccc(Nc2ncc(F)c(NCC3CCCO3)n2)cc1 (centres unmarked) [DZ1-112, 4-(5-fluoro-4-((tetrahydrofuran-2-yl)methylamino)pyrimidin-2-ylamino)phenol]
% Inhibition at 10 μM (ELISA) [1]: 33%
inhibition at 10 µM [4]: 53%

Clc1cnc(Nc2ccc(N3CCNCC3)cc2)nc1NCC1CCCO1 (centres unmarked) [MH1-007-3, 5-chloro-N2-(4-(piperazin-1-yl)phenyl)-N4-((tetrahydrofuran-2-yl)methyl)pyrimidine-2,4-diamine]
% Inhibition at 10 μM (ELISA) [1]: 73% and 78% (2×)
inhibition at 10 µM [4]: 91%

COc1cc(N2CCOCC2)ccc1Nc1ncc(Cl)c(NCC2CCCO2)n1 (centres unmarked) [MH1-030-4, 5-chloro-N2-(2-methoxy-4-morpholinophenyl)-N4-((tetrahydrofuran-2-yl)methyl)pyrimidine-2,4-diamine]
% Inhibition at 10 μM (ELISA) [1]: 82%
inhibition at 10 µM [4]: 88%

Clc1cnc(Nc2ccc(CN3CCCCC3)cc2)nc1NCC1CCCO1 (centres unmarked) [MH1-035-3, 5-chloro-N2-(4-(piperidin-1-ylmethyl)phenyl)-N4-((tetrahydrofuran-2-yl)methyl)pyrimidine-2,4-diamine]
% Inhibition at 10 μM (ELISA) [1]: 72%
inhibition at 10 µM [4]: 77%

Cl.Clc1cnc(Nc2ccc(C3CCNCC3)cc2)nc1NCC1CCCO1 (centres unmarked) [NT1-005, 5-Chloro-N^2-(4-(piperidin-4-yl)phenyl)-N^4-((tetrahydrofuran-2-yl)methyl)pyrimidine-2,4-diamine]
% Inhibition at 10 μM (ELISA) [1]: 80%
inhibition at 10 µM [4]: 79%

Cl.O=C(O)Cc1ccc(Nc2ncc(Cl)c(NCC3CCCO3)n2)cc1 (centres unmarked) [NT1-006, 2-(4-(5-Chloro-4-((tetrahydrofuran-2-yl)methylamino)pyrimidin-2-ylamino)phenyl)acetic acid]
% Inhibition at 10 μM (ELISA) [1]: 81%
inhibition at 10 µM [4]: 72%

Cl.O=C(O)CCc1ccc(Nc2ncc(Cl)c(NCC3CCCO3)n2)cc1 (centres unmarked) [NT1-007, 3-(4-(5-Chloro-4-((tetrahydrofuran-2-yl)methylamino)pyrimidin-2-ylamino)phenyl)propanoic acid]
% Inhibition at 10 μM (ELISA) [1]: 73%
inhibition at 10 µM [4]: 75%

Cl.Clc1cnc(Nc2ccc(C3CCNCC3)cc2)nc1NC[C@H]1CCCO1 [NT1-010, (R)-5-Chloro-N^2-(4-(piperidin-4-yl)phenyl)-N^4-((tetrahydrofuran-2-yl)methyl)pyrimidine-2,4-diamine]
% Inhibition at 10 μM (ELISA) [1]: 76%
inhibition at 10 µM [4]: 67%

Cl.Clc1cnc(Nc2ccc(C3CCNCC3)cc2)nc1NC[C@@H]1CCCO1 [NT1-011, (S)-5-Chloro-N^2-(4-(piperidin-4-yl)phenyl)-N^4-((tetrahydrofuran-2-yl)methyl)pyrimidine-2,4-diamine]
% Inhibition at 10 μM (ELISA) [1]: 76%
inhibition at 10 µM [4]: 77%

Cl.O=C(O)Cc1ccc(Nc2ncc(Cl)c(NC[C@H]3CCCO3)n2)cc1 [NT1-012, (R)-2-(4-(5-Chloro-4-((tetrahydrofuran-2-yl)methylamino)pyrimidin-2-ylamino)phenyl)acetic acid]
% Inhibition at 10 μM (ELISA) [1]: 74%
inhibition at 10 µM [4]: 68%

Cl.O=C(O)Cc1ccc(Nc2ncc(Cl)c(NC[C@@H]3CCCO3)n2)cc1 [NT1-013, (S)-2-(4-(5-Chloro-4-((tetrahydrofuran-2-yl)methylamino)pyrimidin-2-ylamino)phenyl)acetic acid]
% Inhibition at 10 μM (ELISA) [1]: 73% and 46%

Cl.O=C(O)CCc1ccc(Nc2ncc(Cl)c(NC[C@H]3CCCO3)n2)cc1 [NT1-014, (R)-3-(4-(5-Chloro-4-((tetrahydrofuran-2-yl)methylamino)pyrimidin-2-ylamino)phenyl)propanoic acid]
% Inhibition at 10 μM (ELISA) [1]: 75%
inhibition at 10 µM [4]: 61%

Cl.O=C(O)CCc1ccc(Nc2ncc(Cl)c(NC[C@@H]3CCCO3)n2)cc1 [NT1-015, (S)-3-(4-(5-Chloro-4-((tetrahydrofuran-2-yl)methylamino)pyrimidin-2-ylamino)phenyl)propanoic acid]
% Inhibition at 10 μM (ELISA) [1]: 72%
inhibition at 10 µM [4]: 70%

Cl.O=C(O)CCc1ccc(Nc2ncc(Br)c(NCC3CCCO3)n2)cc1 (centres unmarked) [NT1-023, 3-(4-(5-Bromo-4-((tetrahydrofuran-2-yl)methylamino)pyrimidin-2-ylamino)phenyl)propanoic acid]
% Inhibition at 10 μM (ELISA) [1]: 75%
inhibition at 10 µM [4]: 74%

CN(C)CCNC(=O)CCc1ccc(Nc2ncc(Cl)c(NCC3CCCO3)n2)cc1.Cl (centres unmarked) [NT1-028, 3-(4-(5-Chloro-4-((tetrahydrofuran-2-yl)methylamino)pyrimidin-2-ylamino)phenyl)-N-(2-(dimethylamino)ethyl)propanamide]
% Inhibition at 10 μM (ELISA) [1]: 74%
inhibition at 10 µM [4]: 62%

CCNC(=O)C1CCN(c2ccc(Nc3ncc(Cl)c(NC[C@@H]4CCCO4)n3)cc2)CC1 [SG1-083]
% Inhibition at 10 μM (ELISA) [1]: 61%
inhibition at 10 µM [4]: 73%

COc1ccc(Nc2ncc(Br)c(NCC3CCCO3)n2)cc1.Cl (centres unmarked) [SK1-022, 5-Bromo-N2-(4-methoxyphenyl)-N4-((tetrahydrofuran-2-yl)methyl)pyrimidine-2,4-diamine]
% Inhibition at 10 μM (ELISA) [1]: 67%
inhibition at 10 µM [4]: 68%

COc1ccc(Nc2ncc(C(=O)Nc3c(F)cccc3Cl)c(NCC3CCCO3)n2)cc1 (centres unmarked) [YL7-104-1, N-(2-chloro-6-fluorophenyl)-2-(4-methoxyphenylamino)-4-((tetrahydrofuran-2-yl)methylamino)pyrimidine-5-carboxamide]
% Inhibition at 10 μM (ELISA) [1]: 76% and 61% and 37% and 27%

Cl.Oc1ccc(Nc2ncc(F)c(NCC3CCCO3)n2)cc1F (centres unmarked) [YL7-164, 2-Fluoro-4-(5-fluoro-4-((tetrahydrofuran-2-yl)methylamino)pyrimidin-2-ylamino)phenol hydrochloride]
% Inhibition at 10 μM (ELISA) [5]: 46% and 55%
inhibition at 10 µM [4]: 37%

Cc1cnc(Nc2ccc(O)c(F)c2)nc1NCC1CCCO1.Cl (centres unmarked) [YL7-170-1, 2-Fluoro-4-(5-methyl-4-((tetrahydrofuran-2-yl)methylamino)pyrimidin-2-ylamino)phenol hydrochloride]
% Inhibition at 10 μM (ELISA) [5]: 51% and 29% and 47%

Cl.O=C(Nc1c(F)cccc1Cl)c1cnc(Nc2ccc(O)c(F)c2)nc1NCC1CCCO1 (centres unmarked) [YL7-170-2, N-(2-chloro-6-fluorophenyl)-2-(3-fluoro-4-hydroxyphenylamino)-4-((tetrahydrofuran-2-yl)methylamino)pyrimidine-5-carboxamide hydrochloride]
% Inhibition at 10 μM (ELISA) [5]: 68% and 67%
inhibition at 10 µM [4]: 65%

O=C(O)C1CCN(c2ccc(Nc3ncc(Cl)c(NCC4CCCO4)n3)cc2)CC1 (centres unmarked) [YL8-050, 1-(4-(5-Chloro-4-((tetrahydrofuran-2-yl)methylamino)pyrimidin-2-ylamino)phenyl)piperidine-4-carboxylic acid]
% Inhibition at 10 μM (ELISA) [1]: 96%
inhibition at 10 µM [4]: 87%

O=C(O)CCC(=O)N1CCN(c2ccc(Nc3ncc(Br)c(NCC4CCCO4)n3)cc2)CC1 (centres unmarked) [YL9-168, 4-(4-(4-(5-Bromo-4-((tetrahydrofuran-2-yl)methylamino)pyrimidin-2-ylamino)phenyl)piperazin-1-yl)-4-oxobutanoic acid]
% Inhibition at 10 μM (ELISA) [1]: 90%
inhibition at 10 µM [4]: 94%
